The target of one series is T1, human H4 receptor (Homo sapiens, UniProt Q9H3N8).
T1 construct: expressed in transfected cells
Description: [3H]Histamine binding on membranes of CHO cells stably expressing human H4 receptor. The method, boiled down:
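First, thawed CHO membranes carrying human H4 were diluted to 20 μg protein per well in pH 7.4 Tris/EDTA buffer. Next, incubation was ended by rapid filtration through PEI-treated GF/B filters followed by cold rinses. Finally, retained radioactivity was counted; 10 μM JNJ 7777120 marked nonspecific binding.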

Our source for the Ki or IC50 activity class and melting point values is US8802664B2 (Bioproject, priority 2010, dated 2014).

T1 sequence (Q9H3N8 whole entry): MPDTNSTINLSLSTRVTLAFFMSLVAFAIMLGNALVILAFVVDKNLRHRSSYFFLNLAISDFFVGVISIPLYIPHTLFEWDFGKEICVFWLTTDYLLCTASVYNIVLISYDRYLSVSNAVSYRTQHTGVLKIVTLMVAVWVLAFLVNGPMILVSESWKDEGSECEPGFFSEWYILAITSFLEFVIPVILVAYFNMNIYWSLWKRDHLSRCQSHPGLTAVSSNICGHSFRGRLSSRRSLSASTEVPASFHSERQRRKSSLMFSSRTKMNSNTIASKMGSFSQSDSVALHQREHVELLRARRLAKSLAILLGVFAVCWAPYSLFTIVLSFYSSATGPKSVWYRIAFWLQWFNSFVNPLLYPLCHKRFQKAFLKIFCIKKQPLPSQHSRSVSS

`CN1CCC(OC(c2nc3ccccc3[nH]2)c2cccc(-c3ccccc3)c2O)CC1` (stereo not shown) [Example 615]: the melting point amounted to 129 °C. Further, on human H4 receptor, the Ki or IC50 activity class was < 300 nM.
For `CCc1cccc(C(OC2CCN(C)CC2)c2nc3ccccc3[nH]2)c1O` (stereo not shown) [Example 616], in that order: 105 °C and < 30 nM.
In the same order, the values of `CN1CCC(OC(c2nc3ccccc3[nH]2)c2ccc(C(F)(F)F)cc2O)CC1` (stereo not shown) [Example 617] are 144 °C and < 30 nM.
In the same order, the values of `CN1CCC(OC(c2nc3ccccc3[nH]2)c2cc(O)ccc2O)CC1` (stereo not shown) [Example 618] are 189 °C and < 30 nM.
`CN1CCC(OC(c2nc3ccccc3[nH]2)c2ccc3c(c2O)CCCC3)CC1` (stereo not shown) [Example 619] displayed a melting point of 125 °C. Besides, the Ki or IC50 activity class at human H4 receptor is < 300 nM.
In the same order, the values of `CN1CCC(OC(c2nc3ccccc3[nH]2)c2cccc(OC(F)(F)F)c2O)CC1` (stereo not shown) [Example 620] are 126 °C and < 30 nM.
As to `CN1CCC(OC(c2nc3ccccc3[nH]2)c2ccc(OC(F)(F)F)cc2O)CC1` (stereo not shown) [Example 621], the melting point is 133 °C. Moreover, the Ki or IC50 activity class on human H4 receptor is < 30 nM.
For `Cc1cc(C(OC2CCN(C)CC2)c2nc3ccccc3[nH]2)c(O)c(F)c1C` (stereo not shown) [Example 622], in that order: 163 °C and < 300 nM.
For `Cc1c(F)ccc(C(OC2CCN(C)CC2)c2nc3ccccc3[nH]2)c1O` (stereo not shown) [Example 623], the melting point was found to be 97 °C. Further, the Ki or IC50 activity class on human H4 receptor was < 30 nM.
In the same order, the values of `Cc1c(F)cc(C(OC2CCN(C)CC2)c2nc3ccccc3[nH]2)c(O)c1F` (stereo not shown) [Example 624] are 146 °C and < 30 nM.
For `CN1CCC(OC(c2nc3ccccc3[nH]2)c2ccc(F)c(F)c2O)CC1` (stereo not shown) [Example 625, 6-[(1H-benzimidazol-2-yl)(1-methylpiperidin-4-yloxy)methyl]-2,3-difluorophenol], in that order: 184 °C and < 30 nM.

As usually defined, the melting point is the temperature, or range, at which the solid turns liquid.
